# Laboratory results published in patent publication US20260262656A1, “COMPOSITION AND METHOD FOR PROMOTING COLONIZATION OF ARBUSCULAR MYCORRHIZAL FUNGI” (National University Corporation Tottori University, priority 2022, published 2026).
# Columns and labels:
# [1] = test system: Arbuscular mycorrhizal fungus Rhizophagus irregularis DAOM197198; test: Hyphal branching of AM fungus cultured on gel media; assay type: cell-based; details: for hyphal branching activity compared with positive control GR24: GR24 at 100 nM, FIG. 1 and FIG. 2; for activity for promoting hyphal branching (hyphal branch number per spore): concentration range tested 1 to 100 nM, 7-10 days; for activity for promoting hyphal branching (hyphal branch number per spore) / hyphal branch numbers compared to the negative control: Steel test; for hyphal branch numbers compared to the negative control: FIG. 2
# Protocol: • Arbuscular mycorrhizal fungus Rhizophagus irregularis DAOM197198 (Premier Tech Biotechnologies)
# The spores of the AM fungi were separated and cultured on gels according to the conventional procedures outlined below.
# 1. In a 50 mL centrifuge tube, Gastrografin aqueous solutions having different densities were gently layered in the order of 50% (10 mL), 32% (5 mL), 16% (5 mL), and 8% (5 mL), and finally 5 mL of a spore suspension of R. irregularis (hereinafter called the AM fungus) was loaded, and centrifugation was performed at 500 g for 10 minutes.
# 2. The spores separated in the density gradient from the above were collected on a cell strainer and washed with sterilized water 3 times.
# 3. The spores were suspended in sterilized water at 4000 spores/mL.
# 4. A 4 μL drop (about 8 spores) each of the spore suspension diluted to 2000 spores/mL was put in the center portion of the M medium (New Phytol. 108:211-218), which had been dispensed in a 24-well plate at 350 μL each.
# 5. After it was left for 5 minutes to allow excess moisture to evaporate, 200 μL each of 0.3% Phytagel (3 mM MgSO4) at a temperature of about 50° C. was gently poured over the spores. Three to four wells were prepared per treatment group.
# 6. They were cultured in the dark for 5 days at 25° C. to let the spores germinate in advance.
# 1. rac-GR24 (hereinafter denoted as GR24), a synthetic strigolactone known to have a hyphal branching activity for the AM fungi, was used as a positive control. From the GR24 stored in acetone, the solvent was removed in vacuo, and GR24 was resuspended in distilled water and sterilized with a 0.45 μm filter.
# 2. For the other test substances, dry solids were dissolved in distilled water and filter-sterilized as above.
# 3. 200 μL each of the test solutions was added dropwise onto the Phytagel media comprising the germinated spores obtained in (2) above. The AM fungi were treated using sterilized water as a negative (Mock) control and with GR24 at a final concentration of 100 nM as a positive control.
# 4. Culturing was performed in the dark for 7-10 days at 25° C.
# 5. Hyphal branching numbers were measured under a stereomicroscope.
# The hyphae that extended and branched directly from the hyphal stem had complex structures and branched well irrespective of the treatment conditions, and therefore they were excluded from the measurements of hyphal branching numbers. […]
# [2] = test system: common broomrape (Orobanche minor) seeds; test: Bioassay using common broomrape seeds (germination); assay type: cell-based; details: FIG. 5
# Description: The seeds of the genus Orobanche and genus Striga plants, which are root-parasitic weeds, have the property to germinate in response to strigolactones released from the roots of agricultural plants which serve as hosts. These root-parasitic weeds are causing serious damage to crop production worldwide. This poses a hindrance to the external application of strigolactone as an agent for promoting arbuscular mycorrhizal fungus colonization.
# Effect of gentiopicroside (GPS) on the germination of common broomrape (Orobanche minor), a parasitic weed of the genus Orobanche, was investigated. Experiments were performed according to the following experimental procedures.
# (1) Common broomrape seeds were placed in a nylon mesh that had been shaped into a pouch (2 cm×2 cm×2 cm) by a sealer, and the opening of the pouch was closed.
# (2) The seeds, together with the pouch, were placed in a 1% sodium hypochlorite aqueous solution to sterilize the surface for 20 minutes, and then washed 3 times with sterilized water.
# (3) The pouch containing the seeds was placed on a filter paper dampened with sterilized water, and allowed to absorb water for 10 days at 25° C. in the dark.
# (4) 6 mm paper discs contained in a 96-well plate were moistened by adding 15 μL distilled water dropwise.
# (5) A new paper disc was placed on the paper disc of (4) above, and 20 μL of the test solution was added dropwise. Distilled water was used as a negative control (Mock) and 1 μM strigolactone (GR24) as a positive control. For the solvent for GPS, methanol was chosen due to its volatility.
# (6) For treating the common broomrape seeds with both GR24 and GPS, one reagent was first added dropwise, and after complete evaporation of the solvent, the other reagent was then added.
# (7) After the discs were left for 5 minutes to remove the solvent by evaporation, the common broomrape seeds of (3) above, which had been transferred to distilled water, were added together with the water as 5 μL drops.
# (8) After 5 days of culturing at 25° C. in the dark, the germination rates of the common broomrape were measured.
# Rhizophagus clarus HR1 = test: Hyphal branching of a different AM fungus (as in Example 1); assay type: cell-based; details: FIG. 6
# Protocol: Essentially the same experiments as described in Example 1 were carried out, except that a different arbuscular mycorrhizal fungus, Rhizophagus clarus HR1, was used. […] The compositions of the present disclosure can increase hyphal branching of diverse arbuscular mycorrhizal fungi included in the order Glomerales besides those exemplified here.
# [3] = test system: AM fungi colonizing lisianthus (Eustoma grandiflorum cv. Pink Thumb) root; test: AM fungal colonization of host plant root in plant box: lisianthus; assay type: in vivo; parameters: AM fungal colonization rates compared with positive control gibberellin (GA): dose or concentration left out as unconfirmed; details: for root colonization events compared to the mock treatment: 4 weeks
# Protocol: (§1) To confirm that the identified active compounds not only promote hyphal branching of the AM fungi but also actually lead to increases of colonization and symbiosis with diverse plants, tests were carried out using lisianthus (Eustoma grandiflorum cv. Pink Thumb), tomato (Solanum lycopersicum L. cv. Sugar Lump), and chive (Allium schoenoprasum) as host plants.
# Culturing of the host plants and AM fungal colonization and treatments with the active compounds were performed according to the following procedures.
# (1) Plant box was assembled in 3 tiers: the top tier served as a lid having openings for ventilation, the middle tier was a box to which the culture soil (300 mL river sand) had been added, and the bottom tier was an empty box.
# (2) The plant box of (1) above was sterilized by autoclaving (121° C., 20 minutes).
# (3) To the culture soil of the middle box, 1000 spores of the AM fungi and 50 mL of the Hoagland hydroponic solution at a 1/10 concentration were added, and stirred with forceps. The active compounds such as GPS were added to the Hoagland hydroponic solution to treat the AM fungi and host plants.
# (4) In order to prevent drying of the culture soil, 50 mL of the Hoagland hydroponic solution at a 1/10 concentration was also added to the bottom box. A twisted piece of KimWipe was placed through a hole provided at the bottom of the middle box, with the lower tip of the Kim Wipe soaked into the solution in the bottom box, and therefore the culture soil was maintained without becoming dry.
# (5) Six seedlings of each host plant were planted per plant box, and cultured for 4 weeks in a culture chamber set at 24° C. and 14 hour light cycle.
# (6) After completing the culturing period above, the root of each host plant was sampled and preserved in an FAA fixative solution.
# Colonization rates of the AM fungi were measured according to the following procedures.
# (1) The root fixed in said fixative solution was cut into 1 cm fragments and immersed in a 10% KOH aqueous solution, and heated at 90° C. for 15 minutes. […]
# (§2) (4) Using a light microscope having an ocular lens fitted with an ocular micrometer, the stage was moved perpendicular to the root (in the Y-axis direction), and when the crosshair of the ocular micrometer touched the root, presence or absence of AM fungal hyphae in the root within the field of view was examined. The rate of hyphal invasion, i.e. colonization rate, as a total was calculated according to the following formula. […]
# (§3) The rate of arbuscule formation was calculated according to the above formula by replacing the numerator in parentheses, on the right-hand side of the equation, with “number of fields of view in which arbuscules were seen”.
# [4] = test system: AM fungi colonizing tomato (Solanum lycopersicum L. cv. Sugar Lump) root; test: AM fungal colonization of host plant root in plant box: tomato; assay type: in vivo; details: 4 weeks, FIG. 4b
# Protocol: as §1
# (§4) Culturing of the host plants and AM fungal colonization and treatments with the active compounds were performed according to the following procedures. […]
# (§5) Colonization rates of the AM fungi were measured according to the following procedures. […]
# as §2, §3
# [5] = test system: AM fungi colonizing chive (Allium schoenoprasum) root; test: AM fungal colonization of host plant root in plant box: chive; assay type: in vivo
# Protocol: as §1, §4, §5, §2
# The rate of arbuscule formation was calculated according to the above formula by replacing the numerator in parentheses, on the right-hand side of the equation, with “number of fields of view in which arbuscules were seen”. […]
compound,measurement,setting,value
"CC1=C[C@H](O/C=C2/C(=O)O[C@@H]3c4ccccc4C[C@H]23)OC1=O (racemic) [GR24, rac-GR24, reference compound]",hyphal branch number per spore compared to the Mock treatment,"[1]; positive control, 100 nM, 7-10 days at 25° C. in the dark, FIG. 1",significant increase
same,germination rate of the common broomrape seeds,"[2]; 1 μM GR24, 5 days at 25° C. in the dark",~100%
same,hyphal branching,"Rhizophagus clarus HR1; positive control, 100 nM",significant increases
"C=C[C@@H]1C2=CCOC(=O)C2=CO[C@H]1O[C@@H]1O[C@H](CO)[C@@H](O)[C@H](O)[C@H]1O [GPS, Gentiopicroside]",hyphal branching activity compared with positive control GR24,[1],comparable to or greater than that of GR24
same,activity for promoting hyphal branching (hyphal branch number per spore),[1]; FIG. 1,significantly high activities for promoting hyphal branching
same,root colonization events compared to the mock treatment,"[3]; 10 nM, Dunnett's test",statistically significant increase
same,root colonization events compared to the mock treatment,"[3]; GPS treatments, FIG. 4a",increasing trend
same,outside-of-root hyphae of the AM fungi in the rhizosphere,"[3]; GPS treatments, FIG. 4a, left",vigorously branching
same,AM fungal colonization rates compared with positive control gibberellin (GA),[3]; positive control gibberellin,overall lower
same,germination of the common broomrape seeds,"[2]; 1 to 1000 nM GPS alone, 5 days at 25° C. in the dark",did not germinate at all
same,germination rates of the common broomrape seeds,[2]; GPS treatment in the concurrent presence of GR24 treatment,~100%
same,GPS concentration giving maximum average colonization rate of the AM fungi,[4],100 nM
same,AM fungal colonization rate,"[5]; 1 nM (lowest concentration tested), Dunnett's test",statistically significant increase
same,GPS concentration giving maximum average colonization rate of the AM fungi,"[5]; 4 weeks, FIG. 4c",10 nM
same,hyphal branching,Rhizophagus clarus HR1,significant increases
COC(=O)C1=CO[C@@H](O[C@@H]2O[C@H](CO)[C@@H](O)[C@H](O)[C@H]2O)[C@@H]2C(CO)=CC[C@H]12 [Geniposide],hyphal branch numbers compared to the negative control,[1],increased the hyphal branch numbers significantly
same,hyphal branching activity compared with positive control GR24,[1],lower activities compared to GR24 and Loganin
COC(=O)C1=CO[C@@H](O[C@@H]2O[C@H](CO)[C@@H](O)[C@H](O)[C@H]2O)[C@@H]2[C@@H](C)[C@@H](O)C[C@H]12 [Loganin],hyphal branch numbers compared to the negative control,[1],had the activity for the AM fungi to promote hyphal branching
same,hyphal branching activity compared with positive control GR24,[1],comparable to those of Gentiopicroside and Swertiamarin and the positive control GR24
"C=C[C@H]1[C@H](O[C@@H]2O[C@H](CO)[C@@H](O)[C@H](O)[C@H]2O)OC=C2C(=O)OCC[C@]21O [SWM, Swertiamarin]",hyphal branching activity compared with positive control GR24,[1],comparable to or greater than that of GR24
same,activity for promoting hyphal branching (hyphal branch number per spore),[1]; FIG. 1,significantly high activities for promoting hyphal branching
same,hyphal branching,Rhizophagus clarus HR1,significant increases
Oleuropein,hyphal branch numbers compared to the negative control,[1],increased the hyphal branch numbers significantly
same,hyphal branching activity compared with positive control GR24,[1],lower activities compared to GR24 and Loganin
